Reference: paper PMC10999543, “Identification of kinase modulators as host-directed therapeutics against intracellular methicillin-resistant Staphylococcus aureus” (Frontiers in Cellular and Infection Microbiology, 2024)
Where two headings read alike, the source gives them in different places.

What was measured:
HeLa cells = experiment: Compound screen by flow cytometry: HeLa cell count as surrogate readout of cell viability (z-scoreHeLa); format: cell-based, human; conditions: for cell count rep 1 / z-scoreHeLa rep 1: replicate 1; for cell count rep 2 / z-scoreHeLa rep 2: replicate 2; for cell count rep 3 / z-scoreHeLa rep 3: replicate 3; for z-scoreHeLa mean: mean of 3 replicates
In short: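 HeLa cells were infected with GFP-MRSA (mean MOI 6.8 ± 4.6) for 1 h, and extracellular bacteria were killed with 30 µg/ml gentamicin. Cells were then incubated overnight with kinase inhibitors in 5 µg/ml gentamicin, in triplicate against DMSO controls. Flow-cytometric cell count served as a viability surrogate, expressed as a plate z-score.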

intracellular MRSA = format: cell-based, Staphylococcus aureus; conditions: for %GFP+ rep 1 / z-scoreMRSA+ rep 1: replicate 1; for %GFP+ rep 2 / z-scoreMRSA+ rep 2: replicate 2; for %GFP+ rep 3 / z-scoreMRSA+ rep 3: replicate 3; for z-scoreMRSA+ mean: mean of 3 replicates
In short: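 HeLa cells infected with GFP-MRSA (MOI ~6.8), gentamicin-cleared, then incubated overnight at 37°C with inhibitors plus 5 µg/ml gentamicin; DMSO as negative control, triplicates. Flow cytometry gave % GFP-positive cells and cell count (viability surrogate); hits by plate z-score (MRSA ≤ -2, HeLa count ≥ -3).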

[1] = PKIS compound screen raw data, HeLa cell count
[2] = PKIS compound screen, HeLa cell count
[3] = PKIS compound screen, Yes/No call on z-scoreHeLa
[4] = PKIS compound screen raw data, MRSA-infected HeLa cells
[5] = PKIS compound screen, MRSA-infected HeLa cells
[6] = PKIS compound screen, Yes/No call (effect without cell death)
[7] = PKIS compound screen, Yes/No call on z-scoreMRSA+
[8] = compound screen, HeLa cell count
[9] = Yes/No: effect without cell death
[10] = compound screen, MRSA-infected HeLa cells
[11] = PKIS compound screen, Yes/No call
[12] = PKIS compounds raw data, HeLa cell count
[13] = PKIS compounds raw data, MRSA-infected HeLa cells

Row | SMILES | cell count rep 1 (HeLa cells; [1]) | cell count rep 2 (HeLa cells; [1]) | cell count rep 3 (HeLa cells; [1]) | z-scoreHeLa mean (HeLa cells; [2]) | z-scoreHeLa rep 1 (HeLa cells; [2]) | z-scoreHeLa rep 2 (HeLa cells; [2]) | z-scoreHeLa rep 3 (HeLa cells; [2]) | cell death (HeLa cells; [3]) | %GFP+ rep 1 (intracellular MRSA; [4]) [%] | %GFP+ rep 2 (intracellular MRSA; [4]) [%] | %GFP+ rep 3 (intracellular MRSA; [4]) [%] | z-scoreMRSA+ mean (intracellular MRSA; [5]) | z-scoreMRSA+ rep 1 (intracellular MRSA; [5]) | z-scoreMRSA+ rep 2 (intracellular MRSA; [5]) | z-scoreMRSA+ rep 3 (intracellular MRSA; [5]) | hit (intracellular MRSA; [6]) | effect (intracellular MRSA; [7]) | cell death (HeLa cells; Yes/No call from z-scoreHeLa) | z-scoreHeLa mean (HeLa cells; [8]) | z-scoreHeLa rep 1 (HeLa cells; [8]) | further results
1 | O=C1Nc2ccc(-c3cccnc3)cc2C1=Cc1cc(Br)c(O)c(Br)c1 [GW429374A] | 24917 | 38643 | 50434 | 1.01 | 0.73 | 0.72 | 1.58 | No | 14.3 | 14.7 | 15.6 | -1.18 | -1.13 | -1.15 | -1.27 | No | No |  |  |  | 
2 | Cc1ccc(NC(=O)c2ccc(Cl)cc2)cc1-c1ccc(C(=O)Nc2ccncc2)cc1 [GSK1398467A] | 10600 | 12964 | 20345 | -2.91 | -1.44 | -4.07 | -3.21 | No | 17.7 | 18.1 | 16.2 | -0.42 | -0.05 | -0.13 | -1.09 | No | No |  |  |  | 
3 | COc1cccc(NC(=O)NCCNc2ccnc(Nc3ccc(F)cc3)n2)c1 [GSK1379879A] | 4370 | 3480 | 4436 |  |  |  |  |  | 22.7 | 22.0 | 21.2 |  |  |  |  |  |  | No | -0.38 | 0.0133 | z-scoreHeLa rep 2 (HeLa cells; [8]): -0.63; z-scoreHeLa rep 3 (HeLa cells; [8]): -0.51; effect (intracellular MRSA; Yes/No call from z-scoreMRSA+): No; hit (intracellular MRSA; [9]): No; z-scoreMRSA+ mean (intracellular MRSA; [10]): -0.35; z-scoreMRSA+ rep 1 (intracellular MRSA; [10]): -0.60; z-scoreMRSA+ rep 2 (intracellular MRSA; [10]): -0.15; z-scoreMRSA+ rep 3 (intracellular MRSA; [10]): -0.30
4 | CC(C)c1nc(-c2cccc(NS(=O)(=O)c3c(F)cccc3F)c2)c(-c2ccnc(Nc3ccc(N4CCOCC4)nc3)n2)s1 [GSK1723980B] | 2167 | 1981 | 2206 |  |  |  |  |  | 10.5 | 11.7 | 10.2 |  |  |  |  |  |  | No | -1.76 | -1.58 | z-scoreHeLa rep 2 (HeLa cells; [8]): -1.79; z-scoreHeLa rep 3 (HeLa cells; [8]): -1.92; effect (intracellular MRSA; Yes/No call from z-scoreMRSA+): Yes; hit (intracellular MRSA; [9]): Yes; z-scoreMRSA+ mean (intracellular MRSA; [10]): -3.23; z-scoreMRSA+ rep 1 (intracellular MRSA; [10]): -3.44; z-scoreMRSA+ rep 2 (intracellular MRSA; [10]): -2.65; z-scoreMRSA+ rep 3 (intracellular MRSA; [10]): -3.59
5 | COc1cc(Nc2nccc(N3CCC(NC(=O)Nc4ccc5c(c4)OCO5)C3)n2)cc(OC)c1OC (centres unmarked) [GSK1379766A] | 25836 | 29727 | 37841 | -0.17 | 0.87 | -0.94 | -0.43 | No | 17.4 | 18.6 | 19.8 | -0.04 | -0.15 | 0.0226 | 0.00377 | No | No |  |  |  | cell death (HeLa cells; [11]): No; z-scoreHeLa mean (HeLa cells; PKIS compound screen): 0.15; z-scoreHeLa rep 1 (HeLa cells; PKIS compound screen): 0.05; z-scoreHeLa rep 2 (HeLa cells; PKIS compound screen): -0.13; z-scoreHeLa rep 3 (HeLa cells; PKIS compound screen): 0.53; cell count rep 1 (HeLa cells; [12]): 6133; cell count rep 2 (HeLa cells; [12]): 5809; cell count rep 3 (HeLa cells; [12]): 6429; effect (intracellular MRSA; [11]): No; z-scoreMRSA+ mean (intracellular MRSA; PKIS compound screen): 0.27; z-scoreMRSA+ rep 1 (intracellular MRSA; PKIS compound screen): 0.18; z-scoreMRSA+ rep 2 (intracellular MRSA; PKIS compound screen): 0.32; z-scoreMRSA+ rep 3 (intracellular MRSA; PKIS compound screen): 0.30; %GFP+ rep 1 (intracellular MRSA; [13]): 28.0%; %GFP+ rep 2 (intracellular MRSA; [13]): 27.7%; %GFP+ rep 3 (intracellular MRSA; [13]): 28.9%
